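GI50: concentration for 50% inhibition of growth. The concentration for full growth arrest is given as TGI.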
How the values were obtained:
Experiment in all cases: growth of human tumour cells (NCI), 384-well format
[1] = test system: NCI/ADR-RES ovarian
[2] = test system: A549 NSCLC
[3] = test system: PC-3 prostate
[4] = test system: DU-145 prostate
[5] = test system: SK-OV-3 ovarian
[6] = test system: NCI-H522 lung
[7] = test system: A498 renal
[8] = test system: HCT-116 colon
[9] = test system: MDA-MB-468 breast
[10] = test system: U251 glioblastoma
[11] = test system: KM12 colon
[12] = test system: TK-10 renal
[13] = test system: BT-549 breast
[14] = test system: HT29 colon
[15] = test system: MDA-MB-231 breast
[16] = test system: HL-60(TB) leukemia
[17] = test system: HS 578T breast
[18] = test system: EKVX NSCLC
[19] = test system: RXF 393 renal
[20] = test system: COLO 205 colon
[21] = test system: UACC-62 melanoma
[22] = test system: HOP-92 NSCLC
[23] = test system: OVCAR-4 ovarian
[24] = test system: SNB-75 CNS
[25] = test system: OVCAR-8 ovarian
[26] = test system: LOX IMVI melanoma
[27] = test system: MALME-3M melanoma
[28] = test system: HCC-2998 colon
[29] = test system: M14 melanoma
[30] = test system: SK-MEL-5 melanoma
[31] = test system: NCI-H322M lung
[32] = test system: T-47D breast
[33] = test system: NCI-H460 NSCLC
[34] = test system: SN12C renal
[35] = test system: NCI-H226 lung
[36] = test system: RPMI-8226 leukemia
[37] = test system: NCI-H23 lung
[38] = test system: MDA-MB-435 melanoma
[39] = test system: SF-539 CNS
[40] = test system: SK-MEL-28 melanoma
[41] = test system: SF-295 CNS
[42] = test system: CAKI-1 renal
[43] = test system: IGROV1 ovarian
[44] = test system: MOLT-4 leukemia
[45] = test system: SNB-19 CNS
[46] = test system: UO-31 renal
[47] = test system: UACC-257 melanoma
[48] = test system: ACHN renal
[49] = test system: SW-620 colon
[50] = test system: SF-268 CNS
[51] = test system: HCT-15 colon
[52] = test system: OVCAR-3 ovarian
[53] = test system: 786-0 renal
[54] = test system: HOP-62 NSCLC
[55] = test system: MCF7 breast
[56] = test system: OVCAR-5 ovarian
[57] = test system: CCRF-CEM leukemia
[58] = test system: K-562 leukemia

NC(=O)[C@@H](CCC(F)(F)F)N(Cc1ccc(-c2ncon2)cc1F)S(=O)(=O)c1ccc(Cl)cc1 gave a GI50 [1] of 17.1 µM, a TGI [1] of 32 µM and a GI50 [2] of 14.6 µM. For the same molecule, the TGI [2] was 28.1 µM, the GI50 [3] was 12.7 µM and the TGI [3] was 25.8 µM. For the same molecule, the GI50 [4] was 19 µM, the TGI [4] was 36.4 µM and the GI50 [5] was 17.5 µM. For the same molecule, the TGI [5] was 34.4 µM, the GI50 [6] was 17.7 µM and the TGI [6] was 31.6 µM. For the same molecule, the GI50 [7] was 17.7 µM, the TGI [7] was 31.8 µM and the GI50 [8] was 15.2 µM. The TGI [8] was 28.8 µM, the GI50 [9] was 3.28 µM and the TGI [9] was 22.1 µM. For the same molecule, the GI50 [10] was 17.3 µM, the TGI [10] was 31.1 µM and the GI50 [11] was 15 µM. The TGI [11] was 28.7 µM, the GI50 [12] was 18.3 µM and the TGI [12] was 36.4 µM. It also gave a GI50 [13] of 17.2 µM, a TGI [13] of 32.2 µM and a GI50 [14] of 14.2 µM. For the same molecule, the TGI [14] was 27.4 µM, the GI50 [15] was 14.6 µM and the TGI [15] was 28.5 µM. For the same molecule, the GI50 [16] was 14 µM, the TGI [16] was 27.1 µM and the GI50 [17] was 12.6 µM. It also gave a TGI [17] of 25.2 µM, a GI50 [18] of 15.8 µM and a TGI [18] of 31.4 µM. For the same molecule, the GI50 [19] was 11.7 µM, the TGI [19] was 23.9 µM and the GI50 [20] was 15.5 µM. The TGI [20] was 30.2 µM, the GI50 [21] was 11.4 µM and the TGI [21] was 23.6 µM. For the same molecule, the GI50 [22] was 13.1 µM, the TGI [22] was 26.2 µM and the GI50 [23] was 14.7 µM. The TGI [23] was 28.1 µM, the GI50 [24] was 14.1 µM and the TGI [24] was 28.1 µM. For the same molecule, the GI50 [25] was 17.1 µM, the TGI [25] was 31 µM and the GI50 [26] was 14.4 µM. The TGI [26] was 27.8 µM, the GI50 [27] was 13.4 µM and the TGI [27] was 26.2 µM. For the same molecule, the GI50 [28] was 3.09 µM, the TGI [28] was 12.6 µM and the GI50 [29] was 12.5 µM. It also gave a TGI [29] of 25.1 µM, a GI50 [30] of 12.9 µM and a TGI [30] of 25.8 µM. For the same molecule, the GI50 [31] was 15 µM, the TGI [31] was 29.5 µM and the GI50 [32] was 2.15 µM. For the same molecule, the TGI [32] was 10.5 µM, the GI50 [33] was 15.5 µM and the TGI [33] was 29.2 µM. The GI50 [34] was 16.7 µM, the TGI [34] was 30.5 µM and the GI50 [35] was 14.4 µM. It also gave a TGI [35] of 28.3 µM, a GI50 [36] of 13.6 µM and a TGI [36] of 26.6 µM. For the same molecule, the GI50 [37] was 14.6 µM, the TGI [37] was 28.6 µM and the GI50 [38] was 13.5 µM. For the same molecule, the TGI [38] was 26.8 µM, the GI50 [39] was 17.7 µM and the TGI [39] was 31.7 µM. For the same molecule, the GI50 [40] was 18.1 µM, the TGI [40] was 32.1 µM and the GI50 [41] was 17 µM. It also gave a TGI [41] of 31 µM, a GI50 [42] of 15.9 µM and a TGI [42] of 30.9 µM. The GI50 [43] was 16.4 µM, the TGI [43] was 30.5 µM and the GI50 [44] was 5.98 µM. It also gave a TGI [44] of 19.8 µM, a GI50 [45] of 16.9 µM and a TGI [45] of 31.5 µM. It also gave a GI50 [46] of 13 µM, a TGI [46] of 25.9 µM and a GI50 [47] of 14.1 µM. For the same molecule, the TGI [47] was 27.3 µM, the GI50 [48] was 16 µM and the TGI [48] was 30 µM. It also gave a GI50 [49] of 17.6 µM, a TGI [49] of 32.5 µM and a GI50 [50] of 13 µM. It also gave a TGI [50] of 25.8 µM, a GI50 [51] of 15.4 µM and a TGI [51] of 29.9 µM. For the same molecule, the GI50 [52] was 15.6 µM, the TGI [52] was 29.1 µM and the GI50 [53] was 14.4 µM. It also gave a TGI [53] of 27.6 µM, a GI50 [54] of 14.7 µM and a TGI [54] of 28.1 µM. The GI50 [55] was 14.5 µM, the TGI [55] was 28.3 µM and the GI50 [56] was 17.7 µM. It also gave a TGI [56] of 33.8 µM, a GI50 [57] of 11.6 µM and a TGI [57] of 23.8 µM. It also gave a GI50 [58] of 13.5 µM and a TGI [58] of 26.7 µM.

— PubChem BioAssay (NCI)
